# In patent publication US6984649B1, “Pyridine derivatives” (Bayer Aktiengesellschaft, priority 2000, dated 2006):
# Test system: A549 human lung epithelium cell line
# Assay: RANTES production in response to TNF-α from A549 cells
# Format: cell-based
# Conditions: A549 cells, 100 ng/ml TNF-α, read-out: Cellular activity grade (A549) (Cellular IC50)
# Method in brief: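 Cells (4×10^4/well) in D-MEM/10% FCS preincubated 1 h at 37 °C with compound in 1% DMSO, then stimulated with 100 ng/ml TNF-α for 24 h. Supernatant RANTES quantified by Eu-labelled sandwich immunoassay (time-resolved fluorescence, ex 340/em 615 nm) against recombinant human RANTES standard.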
row,IC50,SMILES
1,< 1000 nM,Cc1ccc(COc2cccc(O)c2-c2cc(C3CCCNC3)c(C#N)c(N)n2)cc1 (centres unmarked) [Example 2-35]
2,< 1000 nM,N#Cc1c(C2CCCNC2)cc(-c2c(O)cccc2OCc2ccc(C(F)(F)F)cc2)nc1N (centres unmarked) [Example 2-36]
3,< 1000 nM,N#Cc1c(C2CCCNC2)cc(-c2c(O)cccc2OCc2ccccc2F)nc1N (centres unmarked) [Example 2-37]
4,< 1000 nM,COC(=O)c1ccc(COc2cccc(O)c2-c2cc(C3CCCNC3)c(C#N)c(N)n2)cc1 (centres unmarked) [Example 2-38]
5,< 1000 nM,N#Cc1c(C2CCCNC2)cc(-c2c(O)cccc2OCc2ccc(Br)cc2)nc1N (centres unmarked) [Example 2-39]

# Same assay, conditions: Homo sapiens, A549, A549 cells, 100 ng/ml TNF-α, read-out: Cellular activity grade (A549) (Cellular IC50)
row,IC50,SMILES
1,1000 to 10000 nM,N#Cc1c(C2CCCNC2)cc(-c2c(O)cccc2OCc2ccc(Cl)c(Cl)c2)nc1N (centres unmarked) [Example 2-05]
2,1000 to 10000 nM,Cc1ccccc1COc1cccc(O)c1-c1cc(C2CCCNC2)c(C#N)c(N)n1 (centres unmarked) [Example 2-06]
3,1000 to 10000 nM,N#Cc1c(C2CCCNC2)cc(-c2c(O)cccc2OCc2ccccc2-c2ccccc2)nc1N (centres unmarked) [Example 2-22]
4,1000 to 10000 nM,N#Cc1c(C2CCNCC2)cc(-c2c(O)cccc2OCc2ccccc2)nc1N [Example 2-23]
5,< 1000 nM,N#Cc1c(C2CCCNC2)cc(-c2c(O)cccc2OCc2ccc(Br)cc2)nc1N (centres unmarked) [Example 2-24]
6,< 1000 nM,N#Cc1c(C2CCCNC2)cc(-c2c(O)cccc2OCc2ccccc2F)nc1N (centres unmarked) [Example 2-25]
7,< 1000 nM,N#Cc1c(C2CCCNC2)cc(-c2c(O)cccc2OCc2ccc(F)cc2F)nc1N (centres unmarked) [Example 2-26]
8,< 1000 nM,N#Cc1c(C2CCCNC2)cc(-c2c(O)cccc2OCc2cccc(F)c2)nc1N (centres unmarked) [Example 2-27]
9,< 1000 nM,N#Cc1c(C2CCCNC2)cc(-c2c(O)cccc2OCc2ccc(F)cc2)nc1N (centres unmarked) [Example 2-28]
10,1000 to 10000 nM,N#Cc1c(C2CCCNC2)cc(-c2c(O)cccc2OCc2ccc(F)c(F)c2)nc1N (centres unmarked) [Example 2-29]
11,< 1000 nM,COC(=O)c1ccc(COc2cccc(O)c2-c2cc(C3CCCNC3)c(C#N)c(N)n2)cc1 (centres unmarked) [Example 2-30]
12,< 1000 nM,CC(C)(C)c1ccc(COc2cccc(O)c2-c2cc(C3CCCNC3)c(C#N)c(N)n2)cc1 (centres unmarked) [Example 2-31]
13,1000 to 10000 nM,N#Cc1c(C2CCCNC2)cc(-c2c(O)cccc2OCc2cccc3ccccc23)nc1N (centres unmarked) [Example 2-32]
14,1000 to 10000 nM,N#Cc1c(C2CCCNC2)cc(-c2c(O)cccc2OCc2ccc(-c3ccccc3)cc2)nc1N (centres unmarked) [Example 2-33]
15,1000 to 10000 nM,N#Cc1c(C2CCCNC2)cc(-c2c(O)cccc2OCc2ccc(Cl)cc2Cl)nc1N (centres unmarked) [Example 2-34]
16,< 1000 nM,N#Cc1c(CCN)cc(-c2c(O)cccc2OCc2ccccc2)nc1N [Example 2-40]
17,< 1000 nM,N#Cc1c(C2CCCNC2)cc(-c2c(O)cccc2OCCc2ccccc2)nc1N (centres unmarked) [Example 2-41]
18,1000 to 10000 nM,N#Cc1c(C2CCCNC2)cc(-c2c(O)cccc2OCc2ccccn2)nc1N (centres unmarked) [Example 2-42]
19,< 1000 nM,N#Cc1c(C2CCCNC2)cc(-c2c(O)cccc2OCc2cccnc2)nc1N (centres unmarked) [Example 2-43]
20,< 1000 nM,N#Cc1c(C2CCCNC2)cc(-c2c(O)cccc2OCc2ccncc2)nc1N (centres unmarked) [Example 2-44]
21,< 1000 nM,N#Cc1c(C2CCCNC2)cc(-c2c(O)cccc2OCc2ccc3ccccc3n2)nc1N (centres unmarked) [Example 2-45]
22,1000 to 10000 nM,N#Cc1c(C2CCCNC2)cc(-c2c(O)cccc2OCCC(c2ccccc2)c2ccccc2)nc1N (centres unmarked) [Example 2-46]
23,1000 to 10000 nM,N#Cc1c(C2CCCNC2)cc(-c2c(O)cccc2OCc2csc3ccc(Cl)cc23)nc1N (centres unmarked) [Example 2-47]
24,< 1000 nM,N#Cc1c(C2CCCNC2)cc(-c2c(O)cccc2OCc2ncon2)nc1N (centres unmarked) [Example 2-48]
25,< 1000 nM,Cc1cc(COc2cccc(O)c2-c2cc(C3CCCNC3)c(C#N)c(N)n2)no1 (centres unmarked) [Example 2-49]

row,IC50,SMILES
1,< 1000 nM,N#Cc1c(C2CCCNC2)cc(-c2c(O)cccc2OCCCc2ccccc2)nc1N (centres unmarked) [Example 2-50]
2,< 1000 nM,N#Cc1c(C2CCCNC2)cc(-c2c(O)cccc2OCC(=O)c2ccccc2)nc1N (centres unmarked) [Example 2-51]
3,< 1000 nM,N#Cc1c(C2CCNCC2)cc(-c2c(O)cccc2OCCc2ccccc2)nc1N [Example 2-52]
4,< 1000 nM,N#Cc1c(C2CCCNC2)cc(-c2c(O)cccc2OCC2CCCCC2)nc1N (centres unmarked) [Example 2-53]
5,< 1000 nM,CC(C)Oc1cccc(O)c1-c1cc(C2CCCNC2)c(C#N)c(N)n1 (centres unmarked) [Example 2-54]
6,< 1000 nM,CCCOc1cccc(O)c1-c1cc(C2CCCNC2)c(C#N)c(N)n1 (centres unmarked) [Example 2-55]
7,< 1000 nM,C=CCOc1cccc(O)c1-c1cc(C2CCCNC2)c(C#N)c(N)n1 (centres unmarked) [Example 2-56]
8,< 1000 nM,COc1cccc(O)c1-c1cc(C2CCCNC2)c(C#N)c(N)n1 (centres unmarked) [Example 2-57]
9,< 1000 nM,CCOc1cccc(O)c1-c1cc(C2CCCNC2)c(C#N)c(N)n1 (centres unmarked) [Example 2-58]
10,< 1000 nM,CC(C)COc1cccc(O)c1-c1cc(C2CCCNC2)c(C#N)c(N)n1 (centres unmarked) [Example 2-59]
11,< 1000 nM,CCCCCOc1cccc(O)c1-c1cc(C2CCCNC2)c(C#N)c(N)n1 (centres unmarked) [Example 2-60]
12,< 1000 nM,CN1CCCC(c2cc(-c3ccccc3O)nc(N)c2C#N)C1 (centres unmarked) [Example 3-03]
13,1000 to 10000 nM,CCCN1CCCC(c2cc(-c3ccccc3O)nc(N)c2C#N)C1 (centres unmarked) [Example 3-04]
14,< 1000 nM,N#Cc1c(C2CCCN(Cc3ccccc3)C2)cc(-c2ccccc2O)nc1N (centres unmarked) [Example 3-05]
15,1000 to 10000 nM,N#Cc1c(C2CCCN(CCc3ccccc3)C2)cc(-c2ccccc2O)nc1N (centres unmarked) [Example 3-06]
16,1000 to 10000 nM,COc1ccc(CN2CCCC(c3cc(-c4c(O)cccc4O)nc(N)c3C#N)C2)cc1 (centres unmarked) [Example 3-07]
17,> 10000 nM,COc1ccc(CN2CCCC(c3cc(-c4c(O)cccc4OCC4CC4)nc(N)c3C#N)C2)cc1 (centres unmarked) [Example 3-08]
18,1000 to 10000 nM,Nc1nc(-c2c(O)cccc2OCc2ccccc2)cc(C2CCCNC2)c1CO (centres unmarked) [Example 12-02]
19,< 1000 nM,CCCOc1cccc(O)c1-c1cc(C2CCCNC2)c(CO)c(N)n1 (centres unmarked) [Example 12-03]
20,< 1000 nM,CC(C)(C)COc1cccc(O)c1-c1cc(C2CCCNC2)c(CO)c(N)n1 (centres unmarked) [Example 12-04]
21,< 1000 nM,Nc1nc(-c2c(O)cccc2OCC2CC2)cc(C2CCNCC2)c1CO [Example 12-05]
22,< 1000 nM,CCCOc1cccc(O)c1-c1cc(C2CCNCC2)c(CO)c(N)n1 [Example 12-06]
23,< 1000 nM,CC(C)CCCOc1cccc(O)c1-c1cc(C2CCNCC2)c(CO)c(N)n1 [Example 12-07]
24,< 1000 nM,O=C1Nc2nc(-c3c(O)cccc3F)cc(C3CCCNC3)c2CO1 (centres unmarked) [Example 18-07]
25,< 1000 nM,O=C1Nc2nc(-c3ncccc3O)cc(C3CCCNC3)c2CO1 (centres unmarked) [Example 18-08]

row,IC50,SMILES
1,< 1000 nM,Cc1cc(-c2c(O)cccc2OCC2CC2)nc2c1COC(=O)N2 [Example 18-09]
2,< 1000 nM,O=C1Nc2nc(-c3c(O)cccc3OCc3ccccc3)cc(C3CCCNC3)c2CO1 (centres unmarked) [Example 18-10]
3,< 1000 nM,CCCOc1cccc(O)c1-c1cc(C2CCCNC2)c2c(n1)NC(=O)OC2 (centres unmarked) [Example 18-11]
4,> 10000 nM,O=C1Nc2nc(-c3c(O)cccc3O)cc(C3CCNCC3)c2CO1 [Example 18-12]
5,< 1000 nM,O=C1Nc2nc(-c3c(O)cccc3OCC3CC3)cc(C3CCNCC3)c2CO1 [Example 18-13]
6,< 1000 nM,CCCOc1cccc(O)c1-c1cc(C2CCNCC2)c2c(n1)NC(=O)OC2 [Example 18-14]
7,< 1000 nM,CC(C)CCCOc1cccc(O)c1-c1cc(C2CCNCC2)c2c(n1)NC(=O)OC2 [Example 18-15]
8,1000 to 10000 nM,O=C1Nc2nc(-c3c(O)cccc3OCc3ccccc3)cc(C3CCNCC3)c2CO1 [Example 18-16]
9,< 1000 nM,CC(=O)NCc1c(C2CCCNC2)cc(-c2ccccc2O)nc1N (centres unmarked) [Example 23-04]
10,< 1000 nM,Nc1nc(-c2ccccc2O)cc(C2CCCNC2)c1CNC(=O)C1CC1 (centres unmarked) [Example 23-05]
11,1000 to 10000 nM,CCC(=O)NCc1c(C2CCCNC2)cc(-c2ccccc2O)nc1N (centres unmarked) [Example 23-06]
12,< 1000 nM,CC(=O)NCc1c(C2CCNCC2)cc(-c2c(O)cccc2OCC2CC2)nc1N [Example 23-07]
13,< 1000 nM,CC(C)OC(=O)NCc1c(C2CCCNC2)cc(-c2c(O)cccc2OCC2CC2)nc1N (centres unmarked) [Example 23-08]
14,< 1000 nM,CC(C)COC(=O)NCc1c(C2CCCNC2)cc(-c2c(O)cccc2OCC2CC2)nc1N (centres unmarked) [Example 23-09]
15,< 1000 nM,CC(C)(C)COC(=O)NCc1c(C2CCCNC2)cc(-c2c(O)cccc2OCC2CC2)nc1N (centres unmarked) [Example 23-10]
16,< 1000 nM,CN(C)C(=O)NCc1c(C2CCCNC2)cc(-c2c(O)cccc2OCC2CC2)nc1N (centres unmarked) [Example 23-11]
17,< 1000 nM,CCCNC(=O)NCc1c(C2CCCNC2)cc(-c2c(O)cccc2OCC2CC2)nc1N (centres unmarked) [Example 23-12]
18,< 1000 nM,NC(=O)NCc1c(C2CCCNC2)cc(-c2c(O)cccc2OCC2CC2)nc1N (centres unmarked) [Example 23-13]
19,< 1000 nM,Nc1nc(-c2c(O)cccc2OCC2CC2)cc(C2CCCNC2)c1CNC(=O)Nc1ccccc1 (centres unmarked) [Example 23-14]
20,< 1000 nM,Nc1nc(-c2c(O)cccc2OCC2CC2)cc(C2CCCNC2)c1CNC(=S)Nc1ccccc1 (centres unmarked) [Example 23-15]
21,< 1000 nM,CC(C)OC(=O)N1Cc2c(C3CCCNC3)cc(-c3c(O)cccc3OCC3CC3)nc2NC1=O (centres unmarked) [Example 24-05]
22,< 1000 nM,CC(C)COC(=O)N1Cc2c(C3CCCNC3)cc(-c3c(O)cccc3OCC3CC3)nc2NC1=O (centres unmarked) [Example 24-06]
23,< 1000 nM,CC(C)(C)COC(=O)N1Cc2c(C3CCCNC3)cc(-c3c(O)cccc3OCC3CC3)nc2NC1=O (centres unmarked) [Example 24-07]
24,< 1000 nM,CN(C)C(=O)N1Cc2c(C3CCCNC3)cc(-c3c(O)cccc3OCC3CC3)nc2NC1=O (centres unmarked) [Example 24-08]
25,< 1000 nM,NC(=O)N1Cc2c(C3CCCNC3)cc(-c3c(O)cccc3OCC3CC3)nc2NC1=O (centres unmarked) [Example 24-10]
